A short description of the data set: Henry solubility constant Hcp at 298.15 K (mol/(m3 Pa)). Particulars: reference: Schwardt et al. (2021).
Consider `ClC=C(Cl)Cl` [trichloroethene], for which the “Henry solubility constant Hcp” value is 0.001.

For the compound `Cc1ccc(C)cc1` [1,4-dimethylbenzene], the “Henry solubility constant Hcp” value came to 0.001.

As to `C=CCl` [chloroethene], the “Henry solubility constant Hcp” value came out at 0.00039.

On to `ClC(Cl)=C(Cl)Cl` [tetrachloroethene], for which the “Henry solubility constant Hcp” value worked out at 0.00058.

Regarding `C=C(Cl)Cl` [1,1-dichloroethene], the “Henry solubility constant Hcp” value came out at 0.0004.

Consider `Clc1ccccc1` [chlorobenzene], for which the “Henry solubility constant Hcp” value turned out to be 0.002.

For `ClCC(Cl)Cl` [1,1,2-trichloroethane], the “Henry solubility constant Hcp” value stood at 0.0073.

For the compound `ClCC(Cl)(Cl)Cl` [1,1,1,2-tetrachloroethane], the “Henry solubility constant Hcp” value came to 0.0045.

With `CCc1ccccc1` [ethylbenzene], the “Henry solubility constant Hcp” value turned out to be 0.0013.
